Data from patent US20100311674A1, “PHARMACEUTICAL COMPOSITIONS WITH A MECHANISM OF MULTI-TARGET RECEPTOR RETROACTION FOR TREATING DEPRESSION” (Yu-Fen Chi, priority 2007, published 2010).

Legend:
[1] = test system: ICR mice; test: Mouse tail-hanging experiment (Experiment 1); type: in vivo
Protocol: 1.1 Experimental animals: ICR mice, male, 22.0±2 g of body weight, secondary, are provided by the Experimental Animal Science Department of Capital Medical University, Beijing. 1.2 Experiment pharmaceuticals: The pharmaceutical of Embodiment 1 is provided by Beijing Wonner Biotech. […] High dose of Embodiment 1 (80 mg/kg/d); 2. middle dose of Embodiment 1 (40 mg/kg/d); and 3. low dose of Embodiment 1 (20 mg/kg/d). 1.5.1 Group division and administration of drug: The mice are grouped randomly, and 10 mice are in each group. 1. High dose of Embodiment 1 (80 mg/kg, per oral (P.O.), administered for 7 days); 2. middle dose of Embodiment 1 (40 mg/kg, P.O., administered for 7 days); 3. low dose of Embodiment 1 (20 mg/kg, P.O., administered for 7 days); 4. […] After 1 hour of the last administration of drug, the mouse tail-hanging experiment is proceeded. 1.5.2 Experimental method: The mouse's tail (1 cm to the tail end) is taped on the wood strip higher than the platform for 5 cm and hung up for 6 minutes. The time of non-movement of the mouse for the last 5 minutes is recorded. 1.5.3 Statistic calculation: The experimental data are represented as X±SD, and the experimental result is calculated as analysis of variance (ANOVA) by SPSS 11.5 statistic software.

[2] = Body weight measurement, unpredictable long-term stimulus model (Experiment 8); type: in vivo, rat; conditions: 2 mg/kg/d into the stomach, 24 days
Protocol: Unpredictable long-term stimulus model: Health Wistar male rats, secondary, 240˜270 g of body weight, are purchased from Beijing Vital River Experimental Animal Technology Ltd. Co. (The quality certificate number: SOCK (JING) 2002-2003).
The above pharmaceuticals are prepared with 0.5% of sodium carboxymethylcellulose (CMC-Na) for feeding into the stomach. Benzylpenicillin sodium for injection is the product of North China Pharmaceutical Huasheng Co. Ltd. (Lot: S0511204), and norepinephrine (NE) and 5-hydrotryptamine (5-HT) standards are the products of Sigma Co. Other reagents are all marketed.
8.4.1 Group division and administration of drug: The rats are grouped randomly into 6 groups. 1. False therapy group; 2. model group (control); 3. high dose of Embodiment 4 (60 mg/kg/d); 4. middle dose of Embodiment 4 (30 mg/kg/d); 5. low dose of Embodiment 4 (15 mg/kg/d); and 6. […] The test drugs and the positive control drug are prepared with 0.5% of CMC-Na for feeding into the stomach once every day.
Unpredictable long-term stimulus model: The rats in the control group eat and drink normally, and there is no stimulus performed. […]
8.6 Statistic calculation: The experimental data are represented as […], and the experimental result is calculated as ANOVA by SPSS 11.5 statistic software.

[3] = test system: NE and 5-HT contents in the rat cerebral cortex; test: HPLC-electrochemical test of NE and 5-HT contents in the rat cerebral cortex, unpredictable long-term stimulus model (Experiment 8); type: in vivo; conditions: 2 mg/kg/d into the stomach, 24 days
Protocol: 8.4.1 Group division and administration of drug: The rats are grouped randomly into 6 groups. […] The test drugs and the positive control drug are prepared with 0.5% of CMC-Na for feeding into the stomach once every day.
8.5.6 HPLC-electrochemical test: The amounts of norepinephrine and 5-hydrotryptamine in the rat cerebral cortex are measured.
8.6 Statistic calculation: The experimental data are represented as 7±SD, and the experimental result is calculated as ANOVA by SPSS 11.5 statistic software.

Which results are given for `Fc1ccc([C@@H]2CCNC[C@H]2COc2ccc3c(c2)OCO3)cc1` [Paroxetine]?
Time of non-movement ([1]; 3 mg/kg P.O. 7 days, 1 h after last dose, last 5 of 6 min): 75.33 ± 22.91 s; Effect on time of non-movement after the mouse's tail is hung up (in words) ([1]; high and middle doses of Embodiment 1, Paroxetine, significantly different from control): decrease the time of non-movement; Increasing body weight [2]: 96.85 ± 9.30 g; NE [3]: 220.5419 ± 38.32 nmol/L brain tissue extract
